# Reference: publication PMC4363603, “Inhibitory Effects of Chemical Compounds Isolated from the Rhizome of Smilax glabra on Nitric Oxide and Tumor Necrosis Factor-α Production in Lipopolysaccharide-Induced RAW264.7 Cell” (Evidence-based Complementary and Alternative Medicine : eCAM, 2015)
# Experiments:
# Type in all cases: cell-based, mouse
# [1] = tested on: RAW264.7 cells; experiment: MTT cell viability (cytotoxicity) assay; conditions: 24 h incubation, concentration inhibiting 10% of cell proliferation, improved Karber methodology, defined as highest noncytotoxic concentration
# Experimental: (§1) The mouse macrophage-derived RAW264.7 cell line was purchased from Sun Yat-Sen University, Guangzhou, China, and maintained at 37°C in a humidified atmosphere containing 5% CO2 in Dulbecco's modified eagle medium (DMEM) supplemented with 10% heat-inactivated fetal bovine serum (FBS), penicillin (100 U/mL), and streptomycin (100 μg/mL). Cells in exponential growth phase were used for experiments.
# The cytotoxicity of the isolated compounds toward RAW264.7 was evaluated by a conventional MTT assay as reported previously. RAW264.7 cells (1 × 10^5 cells/well) were inoculated to 96-well plates and incubated for 12 h and then treated with different concentrations of compounds. After additional 24 h incubation, 10 μL of MTT solution ([…]) was added to each well, and the plate was incubated for another 4 h. The medium was discarded and 150 μL of dimethyl sulfoxide (DMSO) was added to each well, solubilizing formazan. After 15 min incubation, absorbance at 570 nm was read using a microplate reader. The percent viability was calculated using the following formula: (1) Cell viability%=[…].
# The anti-inflammatory activities of the isolates were tested in vitro for inhibiting the NO and TNF-α production in LPS-induced RAW264.7 cells. Firstly, the cytotoxicity of these compounds cells on the proliferation of RAW264.7 cells was measured by MTT assay. The IC10 value of each compound (Table 1), at which 10% of cells proliferation was inhibited, was calculated with an improved Karber methodology and defined as the highest noncytotoxic concentration. While the dose is ≤IC10, the effect of the isolated compound on RAW264.7 cells could be neglected. In the following experiments, the concentrations of each compound were set at [IC10] × 1, [IC10] × 10^−1, and [IC10] × 10^−2 levels.
# [2] = tested on: NO production in LPS-induced RAW264.7 cells; experiment: Nitric oxide production in LPS-induced RAW264.7 cells (Griess assay); conditions: for inhibitory effect on LPS-induced NO production (in words): compounds at [IC10] × 1, × 10^−1, × 10^−2
# Experimental: as §1
# Nitrite accumulation, as an indicator of NO production in the culture medium, was measured with the Griess reagent as reported previously. RAW264.7 cells were plated into 96-well plate at a density of 3 × 10^6 cells/mL. After 12 h incubation, cells were stimulated by LPS (100 ng/mL) with or without samples for 24 h. Subsequently, the supernatant (100 μL) was harvested and mixed with an equal volume of Griess reagent (0.1% N-(1-naphthyl) ethylenediamine dihydrochloride, 1% sulfanilamide, and 2.5% H3PO4) and stood for 15 min at room temperature in the dark. NO production was determined by measuring absorbance at 540 nm and was converted to nitrite concentration by reference to a standard curve generated with sodium nitrite.
# Figure 1 Effects of ethanol extract of S. glabra (ESG) and its four subfractions (ESG-1, ESG-2, ESG-3, and ESG-4) on RAW264.7 cells viability and LPS-induced NO production. Cells viability (a) was tested by MTT assay; higher value of optical density at 490 nm means higher cell viability. Nitrite accumulated in cell culture supernatants was determined by Griess assay as an index for NO release (b). Cells were treated with LPS (1 μg/mL) for 24 h in the absence or presence of samples (1.6, 8.0, 40, and 200.0 μg/mL). The data were presented as mean ± S.D. (n = 5). Dexamethasone (DMS) was employed as a positive control. # and ###, respectively, mean P < 0.05 and P < 0.001 compared with control group. ∗, ∗∗, and ∗∗∗, respectively, mean P < 0.05, P < 0.01, and P < 0.001 compared with group treated with LPS alone.
# (§2) Figure 4 The inhibitory effects of the isolated compounds on NO (a) and TNF-α (b) productions in LPS-induced RAW264.7 cells. Cells were seeded into 24-well plates and incubated for 12 h and then treated with or without different concentrations of compounds for 24 h (for NO) or […] (for TNF-α). The culture supernatant was analyzed for nitrite and TNF-α production. Results shown are representative of three separate experiments.
# [3] = tested on: TNF-α production in LPS-induced RAW264.7 cells; experiment: TNF-α production in LPS-induced RAW264.7 cells (ELISA); conditions: for IC50: Mus musculus, LPS-induced RAW264.7 cells; for inhibitory effect on LPS-induced TNF-α production (in words): RAW264.7 cells, compounds at [IC10] × 1, × 10^−1, × 10^−2
# Experimental: as §1
# RAW264.7 cells (3 × 10^6 cells/mL) were seeded onto 24-well culture plate and incubated for 12 h. The cells were then pretreated with various concentrations of the isolated compounds for 2 h before stimulation with LPS (100 ng/mL) with or without samples for 12 h. Supernatants were then collected and the TNF-α concentrations in the medium were determined using commercially available ESISA kits according to the manufacturer's instructions as described in previous study.
# as §2
IC50 [3] [µM],Structure (SMILES),IC10 values [1] [µmol/L],inhibitory effect on LPS-induced NO production (in words) [2],inhibitory effect on LPS-induced TNF-α production (in words) [3],other results
–,"COc1cc(C2c3c(cc(OC)c(O)c3OC)CC(CO)C2CO)cc(OC)c1O (centres unmarked) [Comp. 6, lyoniresinol]",238.1 ± 31.6,lowest inhibitory effects,–,"inhibition at 238.1 µM ([2]; Mus musculus, compound at level of IC10, 238.1 μM): 32.7%"
–,"CC1CCCCCCCc2cc(O)cc(O)c2C(=O)O1 (centres unmarked) [Comp. 3, de-O-methyllasiodiplodin]",154.3 ± 20.5,moderate suppression effects,–,–
< 16.6,"COc1cc(C(O)C(CO)C(CO)C(O)c2cc(OC)c(O)c(OC)c2)cc(OC)c1O (centres unmarked) [Comp. 5, 1,4-bis(4-hydroxy-3,5-dimethoxyphenyl)-2,3-bis(hydroxymethyl)-1,4-butanediol]",166.0 ± 9.7,moderate suppression effects,high inhibitory effects,–
< 4.4,"Oc1ccc(/C=C/c2cc(O)cc(O)c2)cc1 [Comp. 7, trans-resveratrol]",4.4 ± 5.7,significant inhibitory effects,high inhibitory effects,"inhibition at 0.4 µM ([2]; Mus musculus, compound at 0.4 μM): ~32%; inhibition at 4.4 µM ([2]; Mus musculus, compound at 4.4 μM): ~48%"
–,"O=C1c2c(O)cc(O)cc2O[C@H](c2ccc(O)cc2)[C@H]1O [Comp. 9, dihydrokaempferol]",139.4 ± 10.3,lowest inhibitory effects,–,"inhibition at 139.4 µM ([2]; Mus musculus, compound at level of IC10, 139.4 μM): 21.3%"
–,"COc1cc(C(=O)O)cc(OC)c1O [Comp. 4, syringic acid]",5.1 ± 4.2,significant inhibitory effects,–,"inhibition at 0.5 µM ([2]; Mus musculus, compound at 0.5 μM): ~19%; inhibition at 5.1 µM ([2]; Mus musculus, compound at 5.1 μM): ~25%"
–,"COC(=O)/C=C/c1ccc(O)c(O)c1 [Comp. 8, trans-caffeic acid methyl ester]",5.2 ± 3.2,–,–,–
–,"COc1cc(O)cc2c1C(=O)O[C@@H](C)CCCCCCC2 [Comp. 2, lasiodiplodin]",147.9 ± 15.4,moderate suppression effects,–,–
< 2.3,"COc1cc([C@H]2OC[C@H]3[C@@H]2CO[C@@H]3c2cc(OC)c(O)c(OC)c2)cc(OC)c1O [Comp. 1, syringaresinol]",23.9 ± 1.8,moderate suppression effects,high inhibitory effects,–
